The test system of assay [1] is MIA PaCa-2 cell. In words: Cell proliferation assay (Celltiter-Glo), MIA PaCa-2. In kind it is cell-based. The settings on record: Homo sapiens, MIA PaCa-2, 72 h, 3 days. As for the experimental part: (§1) Cell Proliferation Assay:
(§2) NCI-H358 cell and MIA PaCa-2 cell was cultured in RPMI-1640 supplemented with 10% FBS in humidified incubator at 37° C., 5% CO2. To asses the effect of Compounds of the Disclosure on cell proliferation, exponentially growing cells (5000 cells/well) were plated onto 96-well plates. After cell seeding, a representative Compounds of the Disclosure were added to the cell media (in concentrations ranging from 0 to 10 μM, 3/dilution series). After 3 days, 30 μL Celltiter-Glo reagent was added, and the luminescent signal was determined according to supplier's instruction. The dose response curves and IC50 values were generated using Prism.
A general note: ATP-based viability assays read luminescence as a measure of living cells.

For assay [2], the system named is NCI-H358 cell. In words: Cell proliferation assay (Celltiter-Glo), NCI-H358. Type of assay: cell-based. The note with it: Homo sapiens, NCI-H358, 72 h, 3 days. The method, then: as §1, §2

We go through 23 molecules from patent US11312724B2 (ASCENTAGE PHARMA (SUZHOU) CO., LTD., priority 2021, dated 2022).

As for `C=CC(=O)N1C2CCC1CN(c1nc(OC[C@@H]3CCCN3C)nc3c1CCC1(COCc4cccc(F)c41)C3)C2` (stereo partly drawn) [Cpd. No. 29, 1-(3-(5-fluoro-2′-(((S)-1-methylpyrrolidin-2-yl)methoxy)-5′,8′-dihydro-6′H-spiro[isochromane-4,7′-quinazolin]-4′-yl)-3,8-diazabicyclo[3.2.1]octan-8-yl)prop-2-en-1-one], the IC50 – broadly, the concentration needed to halve the response being measured – in assay [1] was over 10000 nM; in assay [2] it was 8100 nM.

On to `C=CC(=O)N1CCN(c2nc(OCCCN3CCOCC3)nc3c2CCC2(CCCc4ccccc42)C3)C[C@@H]1CC#N` (stereo partly drawn) [Cpd. No. 19, 2-((2S)-1-acryloyl-4-(2′-(3-morpholinopropoxy)-3,4,5′,8′-tetrahydro-2H,6′H-spiro[naphthalene-1,7′-quinazolin]-4′-yl)piperazin-2-yl)acetonitrile], for which the half-maximal inhibitory concentration (IC50) in assay [1] turned out to be 110 nM; in assay [2], 130 nM.

As for `C=CC(=O)N1CCN(c2nc(OC[C@@H]3CCCN3C)nc3c2CCC2(C3)CN(C)Cc3ccccc32)C[C@@H]1CC#N` (stereo partly drawn) [Cpd. No. 30, 2-((2S)-1-acryloyl-4-(2-methyl-2′-(((S)-1-methylpyrrolidin-2-yl)methoxy)-2,3,5′,8′-tetrahydro-1H,6′H-spiro[isoquinoline-4,7′-quinazolin]-4′-yl)piperazin-2-yl)acetonitrile], the IC50 is 4780 nM in assay [1] and 2060 nM in assay [2].

In the case of `C=CC(=O)N1CCN(c2nc(OC[C@@H]3CCCN3C)nc3c2CCC2(C3)CC(C)Oc3ccccc32)C[C@@H]1CC#N` (stereo partly drawn) [Cpd. No. 25, 2-((2S)-1-acryloyl-4-(2-methyl-2′-(((S)-1-methylpyrrolidin-2-yl)methoxy)-5′,8′-dihydro-6′H-spiro[chromane-4,7′-quinazolin]-4′-yl)piperazin-2-yl)acetonitrile], the results for the half-maximal inhibitory concentration (IC50) in assay [1] and in assay [2] were 1280 nM and 1840 nM, respectively.

`C=CC(=O)N1CCN(c2nc(OC[C@@H]3CCCN3C)nc3c2CC[C@]2(CCCc4ccccc42)C3)C[C@@H]1CC#N` (single isomer, unassigned) [Cpd. No. 1]: the figures for the half-inhibitory concentration (IC50) in assay [1] and in assay [2] were 3.6 nM and 16 nM, respectively.

Regarding `C=CC(=O)N1CCN(c2nc(OC[C@@H]3CCCN3C)nc3c2CCC2(C3)CS(=O)(=O)Cc3ccccc32)C[C@@H]1CC#N` (stereo partly drawn) [Cpd. No. 31, 2-((2S)-1-acryloyl-4-(2′-(((S)-1-methylpyrrolidin-2-yl)methoxy)-2,2-dioxido-5′,8′-dihydro-6′H-spiro[isothiochromane-4,7′-quinazolin]-4′-yl)piperazin-2-yl)acetonitrile], the IC50 in assay [1] and in assay [2] was over 10000 nM each time.

In the case of `C=CC(=O)N1CCN(c2nc(OCC3CCCN3C)nc3c2CC[C@@]2(CCc4ccccc42)C3)C[C@@H]1CC#N` (single isomer, unassigned) [Cpd. No. 5], the half-maximal inhibitory concentration (IC50) was 400 nM in assay [1] and 520 nM in assay [2].

As for `C=CC(=O)N1CCN(c2nc(OC[C@@H]3CCCN3C)nc3c2CCC2(CCOc4ccccc42)C3)C[C@@H]1CC#N` (stereo partly drawn) [Cpd. No. 21, 2-((2S)-1-acryloyl-4-(2′-(((S)-1-methylpyrrolidin-2-yl)methoxy)-5′,8′-dihydro-6′H-spiro[chromane-4,7′-quinazolin]-4′-yl)piperazin-2-yl)acetonitrile], the results for the IC50 in assay [1] and in assay [2] were 440 nM and 470 nM, respectively.

As to `C=CC(=O)N1CCN(c2nc(OC[C@@H]3CCCN3C)nc3c2CC[C@@]2(CCCc4ccccc42)C3)C[C@@H]1CC#N` (single isomer, unassigned) [Cpd. No. 2], the results for the IC50 in assay [1] and in assay [2] were 76 nM and 440 nM, respectively.

Turning to `C=CC(=O)N1CCN(c2nc(OCC3CCCN3C)nc3c2CC[C@]2(CCc4ccccc42)C3)C[C@@H]1CC#N` (single isomer, unassigned) [Cpd. No. 4], the 50% inhibitory concentration (IC50) in assay [1] worked out at 5 nM; in assay [2], 13 nM.

Regarding `C=C(F)C(=O)N1CCN(c2nc(OC[C@@H]3CCCN3C)nc3c2CC[C@@]2(CCc4c(Cl)cccc42)C3)C[C@@H]1CC#N` [Cpd. No. 54, 2-((S)-4-((R)-4-chloro-2′-(((S)-1-methylpyrrolidin-2-yl)methoxy)-2,3,5′,8′-tetrahydro-6′H-spiro[indene-1,7′-quinazolin]-4′-yl)-1-(2-fluoroacryloyl)piperazin-2-yl)acetonitrile], the IC50 in assay [1] was 16 nM; in assay [2], 28 nM.

`C=CC(=O)N1CCN(c2nc(OC[C@@H]3CCCN3C)nc3c2CCC2(COC(C)(C)c4ccccc42)C3)C[C@@H]1CC#N` (stereo partly drawn) [Cpd. No. 34, 2-((2S)-1-acryloyl-4-(1,1-dimethyl-2′-(((S)-1-methylpyrrolidin-2-yl)methoxy)-5′,8′-dihydro-6′H-spiro[isochromane-4,7′-quinazolin]-4′-yl)piperazin-2-yl)acetonitrile]: the IC50 stood at 750 nM in assay [1] and 1350 nM in assay [2].

Regarding `C=CC(=O)N1CCN(c2nc(OC[C@@H]3[C@H]4C[C@H]4CN3C)nc3c2CC[C@@]2(CCc4c(Cl)cccc42)C3)C[C@@H]1CC#N` (single isomer, unassigned) [Cpd. No. 48], the 50% inhibitory concentration (IC50) in assay [1] is 4.3 nM; in assay [2], 6 nM.

Regarding `C=CC(=O)N1CCN(c2nc(OCCCN(C)C)nc3c2CCC2(CCCc4ccccc42)C3)C[C@@H]1CC#N` (stereo partly drawn) [Cpd. No. 17, 2-((2S)-1-acryloyl-4-(2′-(3-(dimethylamino)propoxy)-3,4,5′,8′-tetrahydro-2H,6′H-spiro[naphthalene-1,7′-quinazolin]-4′-yl)piperazin-2-yl)acetonitrile], the half-maximal inhibitory concentration (IC50) was found to be 54 nM in assay [1] and 100 nM in assay [2].

Turning to `C=C(COC)C(=O)N1CCN(c2nc(OC[C@@H]3CCCN3C)nc3c2CCC2(CCc4ccccc42)C3)C[C@@H]1CC#N` (stereo partly drawn) [Cpd. No. 42, 2-((2S)-1-(2-(methoxymethyl)acryloyl)-4-(2′-(((S)-1-methylpyrrolidin-2-yl)methoxy)-2,3,5′,8′-tetrahydro-6′H-spiro[indene-1,7′-quinazolin]-4′-yl)piperazin-2-yl)acetonitrile], the IC50 is 5800 nM in assay [1] and 10400 nM in assay [2].

On to `C=CC(=O)N1CCN(c2nc(OC[C@@H]3CCCCN3C)nc3c2CCC2(CCCc4ccccc42)C3)C[C@@H]1CC#N` (stereo partly drawn) [Cpd. No. 18, 2-((2S)-1-acryloyl-4-(2′-(((S)-1-methylpiperidin-2-yl)methoxy)-3,4,5′,8′-tetrahydro-2H,6′H-spiro[naphthalene-1,7′-quinazolin]-4′-yl)piperazin-2-yl)acetonitrile], for which the half-inhibitory concentration (IC50) in assay [1] came out at 110 nM; in assay [2], 160 nM.

On to `C=CC(=O)N1CCN(c2nc(OCC3CCC4(CC4)N3C)nc3c2CC[C@@]2(CCc4c(Cl)cccc42)C3)C[C@@H]1CC#N` (stereo partly drawn) [Cpd. No. 46, 2-((2S)-1-acryloyl-4-((1R)-4-chloro-2′-((4-methyl-4-azaspiro[2.4]heptan-5-yl)methoxy)-2,3,5′,8′-tetrahydro-6′H-spiro[indene-1,7′-quinazolin]-4′-yl)piperazin-2-yl)acetonitrile], for which the half-maximal inhibitory concentration (IC50) in assay [1] was 15 nM; in assay [2], 25 nM.

On to `C=C(F)C(=O)N1CCN(c2nc(OC[C@@H]3CCCN3C)nc3c2CCC2(COC(C)c4c(F)cccc42)C3)C[C@@H]1CC#N` (stereo partly drawn) [Cpd. No. 36, 2-((2S)-4-(8-fluoro-1-methyl-2′-(((S)-1-methylpyrrolidin-2-yl)methoxy)-5′,8′-dihydro-6′H-spiro[isochromane-4,7′-quinazolin]-4′-yl)-1-(2-fluoroacryloyl)piperazin-2-yl)acetonitrile], for which the half-maximal inhibitory concentration (IC50) amounted to 160 nM in assay [1] and 260 nM in assay [2].

Take `C=C(F)C(=O)N1CCN(c2nc(OCC3CCC4CCCN43)nc3c2CC[C@@]2(CCc4c(Cl)cccc42)C3)C[C@@H]1CC#N` (stereo partly drawn) [Cpd. No. 52, 2-((2S)-4-((1R)-4-chloro-2′-((hexahydro-1H-pyrrolizin-3-yl)methoxy)-2,3,5′,8′-tetrahydro-6′H-spiro[indene-1,7′-quinazolin]-4′-yl)-1-(2-fluoroacryloyl)piperazin-2-yl)acetonitrile]: the figures for the IC50 in assay [1] and in assay [2] were 340 nM and 260 nM, respectively.

Regarding `C=CC(=O)N1CCN(c2nc(OC[C@@H]3CCCN3C)nc3c2CCC2(CCCc4ccc(F)cc42)C3)C[C@@H]1CC#N` (stereo partly drawn) [Cpd. No. 11, 2-((2S)-1-acryloyl-4-(7-fluoro-2′-(((S)-1-methylpyrrolidin-2-yl)methoxy)-3,4,5′,8′-tetrahydro-2H,6′H-spiro[naphthalene-1,7′-quinazolin]-4′-yl)piperazin-2-yl)acetonitrile], the IC50 in assay [1] was determined as 110 nM; in assay [2], 200 nM.

In the case of `C=CC(=O)N1CCN(c2nc(OC[C@@H]3CCCN3C)nc3c2CCC2(CCCc4ccccc42)C3)C[C@H]1CC#N` (stereo partly drawn) [Cpd. No. 3, 2-((2R)-1-acryloyl-4-(2′-(((S)-1-methylpyrrolidin-2-yl)methoxy)-3,4,5′,8′-tetrahydro-2H,6′H-spiro[naphthalene-1,7′-quinazolin]-4′-yl)piperazin-2-yl)acetonitrile], the values for the IC50 in assay [1] and in assay [2] were 140 nM and 290 nM, respectively.

As to `C=CC(=O)N1CCN(c2nc(OC[C@@H]3CCCN3C)nc3c2CCC2(COC(C)c4c(F)cccc42)C3)C[C@@H]1CC#N` (stereo partly drawn) [Cpd. No. 35, 2-((2S)-1-acryloyl-4-(8-fluoro-1-methyl-2′-(((S)-1-methylpyrrolidin-2-yl)methoxy)-5′,8′-dihydro-6′H-spiro[isochromane-4,7′-quinazolin]-4′-yl)piperazin-2-yl)acetonitrile], the half-maximal inhibitory concentration (IC50) in assay [1] amounted to 20 nM; in assay [2], 43 nM.

With `C=CC(=O)N1CCN(c2nc(OC[C@@H]3CCCN3C)nc3c2CCC2(CCOc4c(Cl)cc(Cl)cc42)C3)C[C@@H]1CC#N` (stereo partly drawn) [Cpd. No. 23, 2-((2S)-1-acryloyl-4-(6,8-dichloro-2′-(((S)-1-methylpyrrolidin-2-yl)methoxy)-5′,8′-dihydro-6′H-spiro[chromane-4,7′-quinazolin]-4′-yl)piperazin-2-yl)acetonitrile], the IC50 stood at 740 nM in assay [1] and 1240 nM in assay [2].
